# Source: patent US20210177828A1, “TAM FAMILY KINASE /AND CSF1R KINASE INHIBITOR AND USE THEREOF” (Nanjing Transthera Biosciences Co., Ltd., priority 2018, published 2021)
# Read-outs that look alike come from different tables or passages of the source.
# Legend:
# H1299 cell pAxl = biological target: T1, H1299 cell pAxl (Homo sapiens, UniProt P30530); test: Inhibitory activity on cell pAxl, H1299 cells, hGAS6 stimulation, Western Blot; assay type: cell-based; settings: hGAS6 200 ng/mL
# T1 construct: endogenous in cells; host or cells: H1299
# T1 sequence (P30530 26-894): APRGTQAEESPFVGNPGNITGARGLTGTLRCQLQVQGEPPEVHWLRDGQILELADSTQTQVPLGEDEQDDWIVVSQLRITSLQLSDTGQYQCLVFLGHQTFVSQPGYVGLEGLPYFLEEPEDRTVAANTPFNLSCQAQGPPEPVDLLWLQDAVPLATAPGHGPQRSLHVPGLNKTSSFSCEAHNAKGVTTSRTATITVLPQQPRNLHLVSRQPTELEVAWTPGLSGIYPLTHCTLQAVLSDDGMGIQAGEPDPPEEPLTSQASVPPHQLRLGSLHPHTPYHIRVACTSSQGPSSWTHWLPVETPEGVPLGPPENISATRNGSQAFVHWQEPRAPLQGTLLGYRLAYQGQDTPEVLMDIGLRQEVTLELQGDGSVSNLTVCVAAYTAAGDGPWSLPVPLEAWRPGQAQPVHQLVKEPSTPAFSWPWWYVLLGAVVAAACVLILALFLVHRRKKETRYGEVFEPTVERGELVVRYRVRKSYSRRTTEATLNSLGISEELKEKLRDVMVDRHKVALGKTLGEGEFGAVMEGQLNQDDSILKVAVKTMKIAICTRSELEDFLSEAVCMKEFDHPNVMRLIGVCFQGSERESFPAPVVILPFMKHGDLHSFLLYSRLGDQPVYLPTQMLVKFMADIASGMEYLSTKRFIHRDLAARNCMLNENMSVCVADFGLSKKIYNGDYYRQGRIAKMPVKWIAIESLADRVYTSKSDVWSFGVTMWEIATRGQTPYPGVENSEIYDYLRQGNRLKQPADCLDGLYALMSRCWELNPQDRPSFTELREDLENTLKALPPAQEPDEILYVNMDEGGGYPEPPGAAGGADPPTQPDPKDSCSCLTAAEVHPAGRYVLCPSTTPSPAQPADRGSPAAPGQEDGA
# Experimental: H1299 is a non-small cell lung cancer cell.
# H1299 cells were inoculated to a 6-well plate (containing 10% FBS 1640 medium, 5×10^5 cells per well) and adherently cultivated at 37° C., and 5% CO2 for 18 hrs. The cells were starved overnight, and then compound solutions with different concentrations were added. The compounds had final concentrations of 1.1, 3.3, 10 and 30 nM. […] There was a medium containing 1‰DMSO in the negative control well. The cells were incubated at 37° C., and 5% CO2 for 60 min, and then hGAS6 (R&D, final concentration: 200 ng/mL) was added to each well. The cells were further incubated for 60 min, and then the total protein of the cells was extracted for Western Blot experiment. IC50 values were calculated with GraphPad 5.0 software, and the inhibitory activities of the compounds on cell pAxl were detected.
# [1] = PK assay in rat (IV and PO); assay type: in vivo; settings: plasma, SD rats; for bioavailability: read-out: F % (absolute bioavailability); for clearance: read-out: Cl_obs iv (clearance rate) (converted); for Vd: read-out: Vz_obs iv (apparent volume of distribution); for Tmax: read-out: Tmax po (time of maximum observed plasma concentration)
# Experimental: The experimental compounds were each dissolved in a mixture of 5% DMSO+20% (30% solutol)+75% saline to prepare compound solutions. The compound solutions were intragastrically administered to SD rats at a dosage of 5.0 mg/kg. The blood was sampled at time points of 15 min, 30 min, 1 hr, 2 hrs, 4 hrs, 6 hrs, 8 hrs and 24 hrs after administration.
# The experimental compounds were each dissolved in a mixture of 5% DMSO+20% (30% solutol)+75% saline to prepare compound solutions. The compound solutions were intravenously administered to SD rats at a dosage of 1 mg/kg. The blood was sampled at time points of 5 min, 15 min, 30 min, 1 hr, 2 hrs, 4 hrs, 6 hrs, 8 hrs and 24 hrs after administration.
# The animals were fixed, and the tails were heated under a water bath 10 min before each sampling time. About 100 μL of blood was collected via the tail vein, and the collected blood was placed in an anticoagulant tube containing EDTA-K2. The blood samples were centrifuged at 8,000 rpm for 6 min at 4° C. to obtain plasma samples, and the plasma samples were prepared within 30 min after the blood collection. The plasma samples were stored in a refrigerator at −80° C. before test.
# The sample to be tested was taken out from the −80° C. refrigerator, naturally thawed at room temperature, and vortexed for 5 min. 20 μL of plasma sample was pipetted to a 1.5 mL centrifuge tube, and 200 μL of internal standard working solution (a solution of tolbutamide in methanol, 100 ng/mL) was added. The resulting mixture was thoroughly mixed, vortexed for 5 min, and centrifuged at 12,000 rpm for 5 min. 50 μL of supernatant was precisely pipetted to a 96-well plate with 150 μL of water per well, and the resulting mixture was vortexed for 5 min and then used for LC-MS/MS analysis.
# [2] = IV 1 mg/kg, read-out: AUClast iv (area under plasma concentration-time curve, 0-24 h)
# [3] = IV 1 mg/kg, read-out: tz1/2 iv (terminal half-life) (converted)
# [4] = PO 5 mg/kg, read-out: AUClast po (area under plasma concentration-time curve, 0-24 h)
# [5] = PO 5 mg/kg, read-out: tz1/2 po (terminal half-life) (converted)
IC50 (H1299 cell pAxl) [nM],"bioavailability ([1]; IV 1 mg/kg, PO 5 mg/kg) [%]","AUC(0-t) [1, 2] [ng·h/mL]",clearance ([1]; IV 1 mg/kg) [mL/min/kg],Vd ([1]; IV 1 mg/kg) [L/kg],"half-life [1, 3] [h]","AUC(0-t) [1, 4] [ng·h/mL]",Tmax ([1]; PO 5 mg/kg) [h],"half-life [1, 5] [h]",Compound
1.1,,,,,,,,,COc1cc2nccc(Oc3ccc(NC(=O)c4nn(C5CCOCC5)cc(-c5ccc(C)cc5)c4=O)cc3F)c2cc1OC [Compound 28]
,31.3,4070,4,1.19,3.47,6620,4,3.14,"COc1cc2nccc(Oc3ccc(NC(=O)c4nn(CC5CCOCC5)cc(-c5ccc(C)cc5)c4=O)nc3)c2cc1OC [Compound 2, N-(5-((6,7-dimethoxyquinolin-4-yl)oxy)pyridin-2-yl)-4-oxo-1-((tetrahydro-2H-pyran-4-yl)methyl)-5-(p-tolyl)-1,4-dihydropyridazin-3-carboxamide]"
,40.5,2440,6.17,1.3,2.44,5450,1,2.56,"COc1cc2nccc(Oc3ccc(NC(=O)c4cn(C5CCOCC5)cc(-c5ccc(C)cc5)c4=O)nc3)c2cc1OC [Compound 19, N-(5-((6,7-dimethoxyquinolin-4-yl)oxy)pyridin-2-yl)-4-oxo-1-(tetrahydro-2H-pyran-4-yl)-5-(p-tolyl)-1,4-dihydropyridin-3-carboxamide]"
< 1.1,65.7,8440,1.83,0.84,5.18,28000,6,4.56,"COc1cc2nccc(Oc3ccc(NC(=O)c4nn(C5CCOCC5)cc(-c5ccc(F)cc5)c4=O)nc3)c2cc1OC [Compound 34, N-(5-((6,7-dimethoxyquinolin-4-yl)oxy)pyridin-2-yl)-5-(4-fluorophenyl)-4-oxo-1-(tetrahydro-2H-pyran-4-yl)-1,4-dihydropyridazin-3-carboxamide]"
< 3.3,,,,,,,,,"COc1cc2nccc(Oc3cnc(NC(=O)c4cn(C5CCOCC5)cc(-c5ccc(F)cc5)c4=O)nc3)c2cc1OC [Compound 31, N-(5-((6,7-dimethoxyquinolin-4-yl)oxy)pyrimidin-2-yl)-5-(4-fluorophenyl)-4-oxo-1-(tetrahydro-2H-pyran-4-yl)-1,4-dihydropyridin-3-carboxamide]"
< 1.1,,,,,,,,,"COc1cc2nccc(Oc3ccc(NC(=O)c4cc(CC5CCOCC5)cn(-c5ccc(F)cc5)c4=O)nc3)c2cc1OC [Compound 32, N-(5-((6,7-dimethoxyquinolin-4-yl)oxy)pyridin-2-yl)-1-(4-fluorophenyl)-2-oxo-5-((tetrahydro-2H-pyran-4-yl)methy 1)-1,2-dihydropyridin-3-carboxamide]"
,34.6,1500,11,0.92,0.96,2600,0.5,1.17,"COc1cc2nccc(Oc3cnc(NC(=O)c4nn(C5CCOCC5)cc(-c5ccc(C)cc5)c4=O)nc3)c2cc1OC [Compound 18, N-(5-((6,7-dimethoxyquinolin-4-yl)oxy)pyrimidin-2-yl)-4-oxo-1-(tetrahydro-2H-pyran-4-yl)-5-(p-tolyl)-1,4-dihydropyridazin-3-carboxamide]"
,46.4,4220,3.33,1.65,9.08,9790,4,8.12,"COc1cc2nccc(Oc3ccc(NC(=O)c4cc(-c5ccc(C)cc5)cn(CC5CCOCC5)c4=O)nc3)c2cc1OC [Compound 13, N-(5-((6,7-dimethoxyquinolin-4-yl)oxy)pyridin 2yl)-2-oxo-1-((tetrahydro-2H-pyran-4-yl)methyl)-5-(p-tolyl)-1,2-dihydropyridin-3-carboxamide]"
< 1.1,,,,,,,,,"COc1cc2nccc(Oc3ccc(NC(=O)c4cn(C5CCOCC5)cc(-c5ccc(F)cc5)c4=O)nc3)c2cc1OC [Compound 27, N-(5-((6,7-dimethoxyquinolin-4-yl)oxy)pyridin-2-yl)-5-(4-fluorophenyl)-4-oxo-1-(tetrahydro-2H-pyran-4-yl)-1,4-dihydropyridin-3-carboxamide]"
3.3,,,,,,,,,"COc1cc2nccc(Oc3cnc(NC(=O)c4nn(C5CCOCC5)cc(-c5ccc(F)cc5)c4=O)nc3)c2cc1OC [Compound 33, N-(5-((6,7-dimethoxyquinolin-4-yl)oxy)pyrimidin-2-yl)-5-(4-fluorophenyl)-4-oxo-1-(tetrahydro-2H-pyran-4-yl)-1,4-dihydropyridazin-3-carboxamide]"
30,,,,,,,,,"Cc1ccc(-c2cn(C3CCOCC3)nc(C(=O)Nc3ccc(Oc4ccnc5cc6c(cc45)OCO6)cn3)c2=O)cc1 [Compound 29, N-(5-([1,3]dioxolo[4,5-g]quinolin-8-yloxy)pyridin-2-yl)-4-oxo-1-(tetrahydro-2H-pyran-4-yl)-5-(p-tolyl)-1,4-dihydropyridazin-3-carboxamide]"
,70.7,4860,3.5,1.18,3.98,17200,6,3.5,"COc1cc2nccc(Oc3ccc(NC(=O)c4nn(C5CCOCC5)cc(-c5ccc(C)cc5)c4=O)nc3)c2cc1OC [Compound 17, N-(5-((6,7-dimethoxyquinolin-4-yl)oxy)pyridin-2-yl)-4-oxo-1-(tetrahydro-2H-pyran-4-yl)-5-(p-tolyl)-1,4-dihydropyridazin-3-carboxamide]"
> 10,,,,,,,,,"Cc1ccc(-c2cn(C3CCOCC3)nc(C(=O)Nc3ccc(Oc4ccnc5cc6c(cc45)OCCO6)cn3)c2=O)cc1 [Compound 30, N-(5-((2,3-dihydro-[1,4]dioxino[2,3-g]quinolin-9-yl)oxy)pyridin-2-yl)-4-oxo-1-(tetrahydro-2H-pyran-4-yl)-5-(p-tolyl)-1,4-dihydropyridazin-3-carboxamide]"
